Source: US7902179B2, “Heterocyclic compounds” (Ajinomoto Co., Inc., priority 2001, dated 2011)

Test system: TNF-α production from mouse peritoneal macrophage
Experiment: Inhibition of TNF-α production from mouse peritoneal macrophage (LPS stimulation, ELISA)
Type: cell-based
Conditions: ICR mouse peritoneal cells, GM-CSF and IFN-γ 10 ng/ml, LPS 5 ng/ml, cultured 16 hrs, 50% suppression of TNF-α amount, read-out: IC50 (μM) Mo-TNF
Protocol: Test for TNF-α Production or Inhibition of TNF-α Production from Mouse Peritoneal Macrophage Peritoneal cells were recovered from the peritoneal cavity of ICR mice (male, 5-7 weeks of age, Charles River) and sown in a 96-well half plate (Costar 3696) at a density of 1×10^5 cells per well. As the medium, RPMI-1640 containing 10% fetal calf serum was used and, using this medium, each reagent was prepared. Mouse GM-CSF (Peprotech) and mouse IFN-γ (Peprotech) were respectively added at a final concentration of 10 ng/ml, lipopolysaccharide (E. coli 0111: B4 LPS, DIFCO, lot 99078) was added at a final concentration of 5 ng/ml, and the compound of the present invention was added at 8 steps of dilution series by 3-fold dilution from the final concentration (300 μM), and cultured for 16 hrs. The concentration of TNF-α secreted into the culture supernatant was determined using a mouse TNF-α ELISA quantitative determination kit (Pharmingen, #2673KI) and the absorbance at 450 nm was measured using a V-max kinetic microplate reader (Molecular Devices). The concentration of the compound necessary for 50% suppression of TNF-α amount produced by lipopolysaccharide stimulation was taken as IC50 (μM).

Compound	IC50 [µM]
CC(C)=C1C(=O)NC(=O)c2c1nn(-c1ccccc1)c2N [Example 135]	8.3
COC(=O)CCn1nc2c(c1N)C(=O)NC(=O)C2 [Example 36]	80.5
Nc1c2c(nn1-c1ccccc1)CC(=O)NC2=O [Example 21]	3.5
COc1cccc(-n2nc3c(c2N)C(=O)NC(=O)C3)c1 [Example 16]	20.1
Nc1c2c(nn1-c1ccccc1)/C(=C\c1c(F)c(F)c(F)c(F)c1F)C(=O)NC2=O [Example 133]	0.3
Nc1c2c(nn1-c1ccccc1)C1(CC1)C(=O)NC2=O [Example 98]	18.4
Nc1c2c(nn1-c1ccccc1)/C(=C\c1ccc(O)cc1)C(=O)NC2=O [Example 46]	23.7
COc1ccccc1/C=C1/C(=O)NC(=O)c2c1nn(-c1ccccc1)c2N [Example 71]	4.5
Nc1ccc(/C=C2/C(=O)NC(=O)c3c2nn(-c2ccccc2)c3N)cc1 [Example 55]	6.1
Nc1c2c(nn1-c1cccc(F)c1)CC(=O)NC2=O [Example 9]	18
Nc1c2c(nn1-c1ccccc1)/C(=C\c1cccc(O)c1)C(=O)NC2=O [Example 57]	7.8
Nc1c2c(nn1-c1cccc(Cl)c1)CC(=O)NC2=O [Example 11]	15.2
Cc1ccccc1/C=C1/C(=O)NC(=O)c2c1nn(-c1ccccc1)c2N [Example 49]	32.7
CCC/C=C1/C(=O)NC(=O)c2c1nn(-c1ccccc1)c2N [Example 77]	14.7
Nc1c2c(nn1-c1ccccc1)/C(=C\c1ccc(O)c(O)c1)C(=O)NC2=O [Example 56]	3.3
CCC(CC)Cn1nc2c(c1N)C(=O)NC(=O)C2 [Example 167]	26.8
CCCCCCn1nc2c(c1N)C(=O)NC(=O)C2 [Example 164]	2.1
CCOC(=O)C(C)C1C(=O)NC(=O)c2c1nn(-c1ccccc1)c2N (centres unmarked) [Example 149]	99.7
Nc1c2c(nn1Cc1ccccc1I)CC(=O)NC2=O [Example 180]	8.7
Cc1ccc(-n2nc3c(c2N)C(=O)NC(=O)C3)cc1 [Example 5]	23.9
O=C1Cc2nn(-c3ccccc3)c(Br)c2C(=O)N1 [Example 26]	15.1
Nc1c2c(nn1-c1ccccc1)/C(=C\c1ccco1)C(=O)NC2=O [Example 83]	93.2
Nc1c2c(nn1-c1c(F)c(F)c(F)c(F)c1F)CC(=O)NC2=O [Example 125]	10.8
Nc1c2c(nn1Cc1cccc3ccccc13)CC(=O)NC2=O [Example 172]	83.1
COc1cccc(/C=C2/C(=O)NC(=O)c3c2nn(-c2ccccc2)c3N)c1 [Example 72]	80.5
CC/C(C)=C1/C(=O)NC(=O)c2c1nn(-c1ccccc1)c2N [Example 88]	9.9
Nc1c2c(nn1-c1ccccc1)/C(=C\c1cccs1)C(=O)NC2=O [Example 82]	78.5
O=C1Cc2nn(-c3ccccc3)c(NC3CCCCC3)c2C(=O)N1 [Example 187]	16.6
CC(=O)Nc1ccc(/C=C2/C(=O)NC(=O)c3c2nn(-c2ccccc2)c3N)cc1 [Example 53]	7.9
Nc1c2c(nn1Cc1ccccc1O)CC(=O)NC2=O [Example 170]	13.2

More lines, in order of falling IC50, values ahead:

IC50 [µM]	Compound
82.2	Cn1nc2c(c1NCc1cccc(O)c1)C(=O)NC(=O)C2 [Example 112]
79.1	O=C1Cc2nn(-c3ccccc3)c(Sc3ccccc3)c2C(=O)N1 [Example 33]
77.3	O=C1Cc2nn(-c3ccccc3)c(-c3ccncc3)c2C(=O)N1 [Example 190]
60.3	Nc1c2c(nn1CC1CCCCC1)CC(=O)NC2=O [Example 160]
32.8	Nc1c2c(nn1-c1c(Cl)cccc1Cl)CC(=O)NC2=O [Example 19]
31.9	Nc1c2c(nn1-c1ccccc1)C(=C1CCOCC1)C(=O)NC2=O [Example 92]
28.3	O=C1Cc2nn(-c3ccccc3)c(I)c2C(=O)N1 [Example 27]
28	O=C1Cc2nn(-c3ccccc3)cc2C(=O)N1 [Example 25]
27.3	Cc1cccc(-n2nc3c(c2N)C(=O)NC(=O)C3)c1 [Example 14]
26.9	Nc1c2c(nn1C1CCOCC1)CC(=O)NC2=O [Example 159]
26.2	CO/N=C1/C(=O)NC(=O)c2c1nn(-c1ccccc1)c2N [Example 143]
22.9	Nc1c2c(nn1-c1ccc([N+](=O)[O-])cc1)CC(=O)NC2=O [Example 10]
14.7	O=C1Cc2nn(-c3ccccc3)c(N3CCCC3)c2C(=O)N1 [Example 186]
13	CCCC(CCC)n1nc2c(c1N)C(=O)NC(=O)C2 [Example 162]
11.8	Nc1c2c(nn1-c1ccc(Cl)cc1)CC(=O)NC2=O [Example 12]
10.9	Nc1c2c(nn1C1CCCC1)CC(=O)NC2=O [Example 161]

IC50 [µM]	Compound
10.6	CSCC/C=C1/C(=O)NC(=O)c2c1nn(-c1ccccc1)c2N [Example 78]
9.7	C/C=C1/C(=O)NC(=O)c2c1nn(-c1ccccc1)c2N [Example 86]
9.4	Nc1c2c(nn1-c1ccc(F)cc1)CC(=O)NC2=O [Example 124]
9	Nc1c2c(nn1-c1ccccc1O)CC(=O)NC2=O [Example 153]
8.6	CC(C)c1ccc(/C=C2/C(=O)NC(=O)c3c2nn(-c2ccccc2)c3N)cc1 [Example 52]
8.4	CCOC(=O)Nc1cccc(-n2nc3c(c2N)C(=O)NC(=O)C3)c1 [Example 129]
5.8	CCC(CC)n1nc2c(c1N)C(=O)NC(=O)C2 [Example 158]
5.6	COc1cccc(OC)c1/C=C1/C(=O)NC(=O)c2c1nn(-c1ccccc1)c2N [Example 73]
5	Nc1c2c(nn1-c1ccccn1)CC(=O)NC2=O [Example 13]
4.4	COc1cc(OC)c(/C=C2/C(=O)NC(=O)c3c2nn(-c2ccccc2)c3N)c(OC)c1 [Example 74]
4.3	CCOC(=O)/C(C)=C1\C(=O)NC(=O)c2c1nn(-c1ccccc1)c2N [Example 136]
3.7	Nc1c2c(nn1-c1ccccc1)/C(=C\c1ccc(C(=O)O)cc1)C(=O)NC2=O [Example 60]
3.5	Nc1c2c(nn1-c1ccccc1)/C(=C\C1=COc3ccc(O)cc3C1)C(=O)NC2=O [Example 66]
3.5	Cn1ccnc1/C=C1/C(=O)NC(=O)c2c1nn(-c1ccccc1)c2N [Example 64]
3.5	Nc1c2c(nn1Cc1cccnc1)CC(=O)NC2=O [Example 176]
2.6	CC1(C)CCC(n2nc3c(c2N)C(=O)NC(=O)C3)CC1 [Example 163]
